# In US12258328B2, “6-membered heteroaryl-containing aminopyridine compounds as EGFR inhibitors” (YUHAN CORPORATION, priority 2021, dated 2025):
# Where two headings read alike, the source gives them in different places.
# How the values were obtained:
# EGFR del19/T790M/C797S = EGFR del19/T790M/C797S (Homo sapiens, UniProt P00533, C797S/DEL746-750/T790M); assay: Biochemical EGFR kinase assay (Lance Ultra TR-FRET), triple mutant del19/T790M/C797S
# In short: (§1)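 In this biochemical assay, phosphorylation after a one-hour room-temperature reaction was detected with europium-labelled anti-phosphopeptide antibody at 2 nM final concentration.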
# EGFR L858R/T790M/C797S = EGFR L858R/T790M/C797S (Homo sapiens, UniProt P00533, C797S/L858R/T790M); assay: Biochemical EGFR kinase assay (Lance Ultra TR-FRET), triple mutant L858R/T790M/C797S
# Sequence of EGFR L858R/T790M/C797S (P00533 25-1210 T790M/C797S/L858R): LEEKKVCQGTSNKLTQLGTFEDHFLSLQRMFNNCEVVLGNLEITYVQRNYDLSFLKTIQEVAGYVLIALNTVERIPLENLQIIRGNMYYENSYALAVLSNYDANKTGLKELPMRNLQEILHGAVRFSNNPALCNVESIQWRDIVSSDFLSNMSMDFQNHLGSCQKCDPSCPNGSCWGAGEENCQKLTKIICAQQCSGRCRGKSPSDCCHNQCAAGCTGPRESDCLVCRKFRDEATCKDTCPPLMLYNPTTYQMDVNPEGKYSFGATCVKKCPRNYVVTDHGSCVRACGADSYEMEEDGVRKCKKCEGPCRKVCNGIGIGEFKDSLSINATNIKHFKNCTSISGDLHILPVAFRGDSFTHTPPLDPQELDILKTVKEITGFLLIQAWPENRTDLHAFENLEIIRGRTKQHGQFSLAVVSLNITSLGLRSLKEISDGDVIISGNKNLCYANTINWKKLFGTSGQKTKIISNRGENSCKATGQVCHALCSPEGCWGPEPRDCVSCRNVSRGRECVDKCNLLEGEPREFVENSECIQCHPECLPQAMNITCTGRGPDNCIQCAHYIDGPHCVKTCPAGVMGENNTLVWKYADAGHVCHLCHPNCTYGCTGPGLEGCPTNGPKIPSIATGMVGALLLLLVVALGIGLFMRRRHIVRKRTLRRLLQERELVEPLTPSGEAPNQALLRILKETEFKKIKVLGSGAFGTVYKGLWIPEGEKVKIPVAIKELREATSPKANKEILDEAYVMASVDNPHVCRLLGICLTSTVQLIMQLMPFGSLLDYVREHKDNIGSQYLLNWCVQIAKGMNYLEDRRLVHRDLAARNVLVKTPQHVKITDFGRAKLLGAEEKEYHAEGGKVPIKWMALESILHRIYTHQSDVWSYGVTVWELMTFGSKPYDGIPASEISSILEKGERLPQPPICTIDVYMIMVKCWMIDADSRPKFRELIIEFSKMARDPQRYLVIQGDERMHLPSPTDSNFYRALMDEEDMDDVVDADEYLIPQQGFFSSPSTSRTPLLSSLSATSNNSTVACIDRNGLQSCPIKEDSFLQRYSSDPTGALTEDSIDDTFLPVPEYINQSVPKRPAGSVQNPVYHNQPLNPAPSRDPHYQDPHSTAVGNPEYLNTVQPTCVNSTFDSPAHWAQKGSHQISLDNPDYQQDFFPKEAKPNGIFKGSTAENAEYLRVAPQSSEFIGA
# In short: as §1
# EGFR del19/C797S = EGFR del19/C797S (Homo sapiens, UniProt P00533, C797S/DEL746-750); assay: Biochemical EGFR kinase assay (Lance Ultra TR-FRET), double mutant del19/C797S
# Sequence of EGFR del19/C797S (P00533 with tags, fused parts or gaps DEL746-750/C797S): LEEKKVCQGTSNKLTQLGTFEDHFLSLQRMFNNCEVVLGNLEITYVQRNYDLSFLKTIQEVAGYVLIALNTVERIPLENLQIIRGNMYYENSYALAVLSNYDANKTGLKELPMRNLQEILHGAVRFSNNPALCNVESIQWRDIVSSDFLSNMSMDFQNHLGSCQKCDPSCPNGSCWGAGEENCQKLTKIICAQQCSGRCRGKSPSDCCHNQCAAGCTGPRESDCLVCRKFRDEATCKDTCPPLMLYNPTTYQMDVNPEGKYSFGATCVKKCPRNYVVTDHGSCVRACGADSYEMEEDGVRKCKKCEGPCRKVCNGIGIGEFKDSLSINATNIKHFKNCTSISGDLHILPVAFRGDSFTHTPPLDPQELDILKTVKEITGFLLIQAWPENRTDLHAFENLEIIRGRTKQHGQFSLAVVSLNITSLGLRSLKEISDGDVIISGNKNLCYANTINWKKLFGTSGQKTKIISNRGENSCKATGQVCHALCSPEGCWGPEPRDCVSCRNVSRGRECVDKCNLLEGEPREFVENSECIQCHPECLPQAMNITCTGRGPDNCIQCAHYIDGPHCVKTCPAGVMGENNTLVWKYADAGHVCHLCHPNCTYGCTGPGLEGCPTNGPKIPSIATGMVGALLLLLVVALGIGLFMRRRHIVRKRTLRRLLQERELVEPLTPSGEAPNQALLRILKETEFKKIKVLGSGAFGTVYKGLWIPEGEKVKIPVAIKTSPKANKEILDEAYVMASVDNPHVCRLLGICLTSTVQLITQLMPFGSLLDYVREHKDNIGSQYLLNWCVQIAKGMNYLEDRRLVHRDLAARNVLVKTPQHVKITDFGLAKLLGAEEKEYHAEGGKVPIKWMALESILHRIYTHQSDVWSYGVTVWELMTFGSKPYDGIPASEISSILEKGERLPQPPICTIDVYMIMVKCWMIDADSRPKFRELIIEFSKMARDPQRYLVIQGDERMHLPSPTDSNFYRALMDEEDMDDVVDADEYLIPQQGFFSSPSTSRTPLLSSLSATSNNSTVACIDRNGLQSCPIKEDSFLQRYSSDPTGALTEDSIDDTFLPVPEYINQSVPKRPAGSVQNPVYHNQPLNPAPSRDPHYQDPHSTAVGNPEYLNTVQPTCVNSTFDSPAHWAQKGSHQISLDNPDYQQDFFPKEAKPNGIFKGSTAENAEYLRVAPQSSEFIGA
# In short: as §1
# EGFR L858R/C797S = EGFR L858R/C797S (Homo sapiens, UniProt P00533, C797S/L858R); assay: Biochemical EGFR kinase assay (Lance Ultra TR-FRET), double mutant L858R/C797S
# Sequence of EGFR L858R/C797S (P00533 25-1210 C797S/L858R): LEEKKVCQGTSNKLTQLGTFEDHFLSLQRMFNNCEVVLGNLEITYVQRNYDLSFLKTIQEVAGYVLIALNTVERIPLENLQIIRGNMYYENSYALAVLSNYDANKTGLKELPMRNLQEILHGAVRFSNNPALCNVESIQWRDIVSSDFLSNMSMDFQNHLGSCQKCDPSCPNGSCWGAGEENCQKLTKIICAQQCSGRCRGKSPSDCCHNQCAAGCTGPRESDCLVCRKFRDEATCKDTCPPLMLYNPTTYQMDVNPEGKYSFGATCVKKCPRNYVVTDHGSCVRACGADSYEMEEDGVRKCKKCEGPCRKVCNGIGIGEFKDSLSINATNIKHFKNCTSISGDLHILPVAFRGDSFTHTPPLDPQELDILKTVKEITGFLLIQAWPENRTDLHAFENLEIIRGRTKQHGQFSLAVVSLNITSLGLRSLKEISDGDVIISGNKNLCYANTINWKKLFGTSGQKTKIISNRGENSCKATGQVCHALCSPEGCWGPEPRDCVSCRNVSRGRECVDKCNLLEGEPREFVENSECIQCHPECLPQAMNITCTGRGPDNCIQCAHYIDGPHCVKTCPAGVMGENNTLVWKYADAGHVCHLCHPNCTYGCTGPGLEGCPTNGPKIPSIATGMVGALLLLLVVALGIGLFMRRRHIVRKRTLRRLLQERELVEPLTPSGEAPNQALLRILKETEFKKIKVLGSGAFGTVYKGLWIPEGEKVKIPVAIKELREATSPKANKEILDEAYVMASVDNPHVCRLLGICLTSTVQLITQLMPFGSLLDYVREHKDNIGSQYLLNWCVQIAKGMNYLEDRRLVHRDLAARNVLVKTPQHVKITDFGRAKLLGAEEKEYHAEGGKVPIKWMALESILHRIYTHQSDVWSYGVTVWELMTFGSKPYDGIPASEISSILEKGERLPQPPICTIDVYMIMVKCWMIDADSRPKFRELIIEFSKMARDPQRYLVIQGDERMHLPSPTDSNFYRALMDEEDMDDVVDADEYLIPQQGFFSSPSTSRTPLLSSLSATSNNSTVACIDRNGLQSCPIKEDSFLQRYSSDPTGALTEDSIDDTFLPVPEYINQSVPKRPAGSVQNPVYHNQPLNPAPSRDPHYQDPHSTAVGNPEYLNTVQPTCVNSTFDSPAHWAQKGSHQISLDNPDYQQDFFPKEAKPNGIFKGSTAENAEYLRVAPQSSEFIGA
# In short: as §1
# EGFR wildtype = EGFR wildtype (Homo sapiens, UniProt P00533); assay: Biochemical EGFR kinase assay (Lance Ultra TR-FRET), wildtype
# Sequence of EGFR wildtype (P00533 25-1210): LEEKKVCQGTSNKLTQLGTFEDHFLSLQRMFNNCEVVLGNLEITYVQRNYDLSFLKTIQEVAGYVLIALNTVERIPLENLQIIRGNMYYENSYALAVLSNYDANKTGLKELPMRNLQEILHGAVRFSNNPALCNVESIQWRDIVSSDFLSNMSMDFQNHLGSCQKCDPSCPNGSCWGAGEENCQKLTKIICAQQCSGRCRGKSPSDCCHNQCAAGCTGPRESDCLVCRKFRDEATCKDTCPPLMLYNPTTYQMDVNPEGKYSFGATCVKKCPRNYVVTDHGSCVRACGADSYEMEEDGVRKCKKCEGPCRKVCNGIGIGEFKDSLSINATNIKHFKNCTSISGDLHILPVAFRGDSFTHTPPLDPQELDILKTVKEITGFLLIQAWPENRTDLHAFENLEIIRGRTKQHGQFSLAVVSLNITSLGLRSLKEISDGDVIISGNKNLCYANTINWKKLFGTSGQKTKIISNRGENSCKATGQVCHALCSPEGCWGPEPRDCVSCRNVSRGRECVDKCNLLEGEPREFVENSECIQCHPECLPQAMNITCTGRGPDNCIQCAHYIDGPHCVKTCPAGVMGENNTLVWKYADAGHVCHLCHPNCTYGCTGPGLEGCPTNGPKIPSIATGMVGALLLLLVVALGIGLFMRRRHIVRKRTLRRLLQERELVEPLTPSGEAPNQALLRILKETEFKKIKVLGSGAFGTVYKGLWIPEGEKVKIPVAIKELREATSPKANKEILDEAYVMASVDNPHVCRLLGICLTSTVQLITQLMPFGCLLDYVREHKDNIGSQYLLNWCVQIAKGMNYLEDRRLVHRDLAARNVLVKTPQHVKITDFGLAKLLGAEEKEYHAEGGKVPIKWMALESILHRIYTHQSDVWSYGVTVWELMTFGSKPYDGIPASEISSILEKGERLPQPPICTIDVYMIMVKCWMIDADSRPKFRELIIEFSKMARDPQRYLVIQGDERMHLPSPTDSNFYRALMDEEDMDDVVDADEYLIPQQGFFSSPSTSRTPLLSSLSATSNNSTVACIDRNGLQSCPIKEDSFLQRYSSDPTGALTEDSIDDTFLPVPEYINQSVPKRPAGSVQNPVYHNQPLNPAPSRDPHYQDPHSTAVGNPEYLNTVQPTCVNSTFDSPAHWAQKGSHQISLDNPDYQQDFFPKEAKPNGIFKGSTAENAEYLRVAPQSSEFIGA
# In short: as §1
# [1] = IC50 del19/T790M/C797S (nM) 100 μM ATP, 100 μM ATP
# [2] = Km ATP, read-out: IC50 del19/T790M/C797S (nM) Km ATP
# [3] = IC50 L858R/T790M/C797S (nM) 100 μM ATP, 100 μM ATP
# [4] = Km ATP, read-out: IC50 L858R/T790M/C797S (nM) Km ATP
# [5] = IC50 del19/C797S (nM) 100 μM ATP, 100 μM ATP
# [6] = Km ATP, read-out: IC50 del19/C797S (nM) Km ATP
# [7] = IC50 L858R/C797S (nM) 100 μM ATP, 100 μM ATP
# [8] = Km ATP, read-out: IC50 L858R/C797S (nM) Km ATP
# [9] = IC50 WT (nM) 100 μM ATP, 100 μM ATP
# [10] = Km ATP, read-out: IC50 WT (nM) Km ATP
Compound,IC50 (EGFR del19/T790M/C797S; [1]),IC50 (EGFR del19/T790M/C797S; [2]),IC50 (EGFR L858R/T790M/C797S; [3]),IC50 (EGFR L858R/T790M/C797S; [4]),IC50 (EGFR del19/C797S; [5]),IC50 (EGFR del19/C797S; [6]),IC50 (EGFR L858R/C797S; [7]),IC50 (EGFR L858R/C797S; [8]),IC50 (EGFR wildtype; [9]),IC50 (EGFR wildtype; [10])
"C[C@]1(O)CC[C@@H](Nc2cc(Nc3ccnc(-c4cnn(S(=O)(=O)C5CC5)c4)n3)ncc2-c2cnc(CO)cn2)CC1 [Example 60, (1s,4s)-4-((2-((2-(1-(Cyclopropylsulfonyl)-1H-pyrazol-4-yl)pyrimidin-4-yl)amino)-5-(5-(hydroxymethyl)pyrazin-2-yl)pyridin-4-yl)amino)-1-methylcyclohexan-1-ol]",0.2 nM,0.2 nM,0.4 nM,0.2 nM,0.5 nM,0.4 nM,4.2 nM,0.4 nM,> 10000 nM,6.8 nM
"C[C@]1(O)CC[C@@H](Nc2cc(Nc3ccnc(-c4cnn(S(=O)(=O)C5CC5)c4)n3)ncc2-c2cc(CN3CCOCC3)ccn2)CC1 [Example 61, (1s,4s)-4-((6′-((2-(1-(Cyclopropylsulfonyl)-1H-pyrazol-4-yl)pyrimidin-4-yl)amino)-4-(morpholinomethyl)-[2,3′-bipyridin]-4′-yl)amino)-1-methylcyclohexan-1-ol]",0.2 nM,–,0.2 nM,–,0.4 nM,–,1.8 nM,–,3940 nM,–
"CN1CCN(Cc2cnc(-c3cnc(Nc4ccnc(-c5cnn(S(=O)(=O)C6CC6)c5)n4)cc3N[C@H]3CC[C@@](C)(O)CC3)cn2)CC1 [Example 62, (1s,4s)-4-((2-((2-(1-(Cyclopropylsulfonyl)-1H-pyrazol-4-yl)pyrimidin-4-yl)amino)-5-(5-((4-methylpiperazin-1-yl)methyl)pyrazin-2-yl)pyridin-4-yl)amino)-1-methylcyclohexan-1-ol]",0.1 nM,–,0.1 nM,–,0.2 nM,–,0.9 nM,–,745 nM,–
"C[C@]1(O)CC[C@@H](Nc2cc(Nc3ccnc(-c4cnn(S(=O)(=O)C5CC5)c4)n3)ncc2-c2ccc(C(F)F)cn2)CC1 [Example 63, (1s,4s)-4-((6′-((2-(1-(Cyclopropylsulfonyl)-1H-pyrazol-4-yl)pyrimidin-4-yl)amino)-5-(difluoromethyl)-[2,3′-bipyridin]-4′-yl)amino)-1-methylcyclohexan-1-ol]",0.2 nM,–,0.2 nM,–,0.8 nM,–,5.4 nM,–,> 10000 nM,–
"CN(C)Cc1ccnc(-c2cnc(Nc3ccnc(-c4cnn(S(=O)(=O)C5CC5)c4)n3)cc2N[C@H]2CC[C@@](C)(O)CC2)c1 [Example 64, (1s,4s)-4-((6′-((2-(1-(Cyclopropylsulfonyl)-1H-pyrazol-4-yl)pyrimidin-4-yl)amino)-4-((dimethylamino)methyl)-[2,3′-bipyridin]-4′-yl)amino)-1-methylcyclohexan-1-ol]",0.1 nM,0.1 nM,0.3 nM,0.1 nM,0.2 nM,–,0.9 nM,0.2 nM,1170 nM,2.4 nM
"CN(C)Cc1cnc(-c2cnc(Nc3ccnc(-c4cnn(S(=O)(=O)C5CC5)c4)n3)cc2N[C@H]2CC[C@@](C)(O)CC2)cn1 [Example 65, (1s,4s)-4-((2-((2-(1-(Cyclopropylsulfonyl)-1H-pyrazol-4-yl)pyrimidin-4-yl)amino)-5-(5-((dimethylamino)methyl)pyrazin-2-yl)pyridin-4-yl)amino)-1-methylcyclohexan-1-ol]",0.1 nM,0.1 nM,0.3 nM,0.1 nM,0.2 nM,0.3 nM,0.9 nM,0.1 nM,1140 nM,2.4 nM
"C[C@]1(O)CC[C@@H](Nc2cc(Nc3ccnc(-c4cnn(S(=O)(=O)C5CC5)c4)n3)ncc2-c2ccc(N3CC(F)(F)C3)nn2)CC1 [Example 66, (1s,4s)-4-((2-((2-(1-(Cyclopropylsulfonyl)-1H-pyrazol-4-yl)pyrimidin-4-yl)amino)-5-(6-(3,3-difluoroazetidin-1-yl)pyridazin-3-yl)pyridin-4-yl)amino)-1-methylcyclohexan-1-ol]",0.5 nM,0.3 nM,0.5 nM,0.1 nM,0.9 nM,0.4 nM,12.2 nM,0.5 nM,> 10000 nM,11.5 nM
